Results reported in BigSolDB 2.1.

Cc1cc(C)[nH]n1
solubility (mole fraction)
Conditions	in acetone	in acetonitrile	in ethanol	in ethyl acetate	in isopropanol	in methanol	in n-butanol	in n-propanol	in toluene
283.15 K	0.0625	0.0276	0.12	0.0508	0.115	0.107	0.133	0.123	0.0339
285.65 K	0.0691	0.0312	0.127	0.0578	0.121	0.112	0.14	0.13	0.0382
288.15 K	0.0757	0.0359	0.133	0.0663	0.128	0.118	0.149	0.137	0.045
290.65 K	0.0838	0.0408	0.14	0.077	0.134	0.123	0.158	0.145	0.0517
293.15 K	0.0935	0.0455	0.148	0.0881	0.142	0.131	0.166	0.152	0.0593
295.65 K	0.105	0.0508	0.155	0.1	0.149	0.137	0.176	0.16	0.0677
298.15 K	0.116	0.0568	0.163	0.113	0.157	0.143	0.187	0.167	0.0769
300.65 K	0.129	0.0635	0.171	0.128	0.164	0.15	0.199	0.175	0.0863
303.15 K	0.143	0.0722	0.179	0.144	0.171	0.158	0.211	0.184	0.0979
305.65 K	0.16	0.0806	0.187	0.161	0.18	0.165	0.224	0.194	0.114
308.15 K	0.175	0.0916	0.196	0.18	0.19	0.173	0.237	0.203	0.133
310.65 K	0.194	0.102	0.205	0.199	0.199	0.18	0.251	0.213	0.151
313.15 K	0.213	0.116	0.217	0.223	0.211	0.19	0.265	0.226	0.171
